Values joined by “and” are separate entries in the source; they are usually repeats but may differ in a detail not shown here. Equal values may be shown once.

For orientation: melting point means the temperature of the solid-liquid transition. In turn, `COC(=O)c1cc(-c2ccc(OC)cc2)nn(C)c1=O` [Example 1, 4-Methoxycarbonyl-6-(4-methoxyphenyl)-2-methyl-2H-pyridazin-3-one] had a melting point of 109.2 to 109.5 °C.

On to `CCCn1nc(-c2ccc(OC)cc2)cc(C(=O)OC)c1=O` [Example 4, 4-Methoxycarbonyl-6-(4-methoxyphenyl)-2-n-propyl-2H-pyridazin-3-one], for which the melting point was 106.5 to 107.1 °C and 104.8 to 105.8 °C.

`CCOC(=O)c1cc(-c2ccc(OC)cc2)nn(C(C)C)c1=O` [Example 9, 4-Ethoxycarbonyl-2-isopropyl-6-(4-methoxyphenyl)-2H-pyridazin-3-one] yielded a melting point of 140.6 to 141.1 °C.

The compound `CCOC(=O)c1cc(-c2ccc(OC)cc2)nn(CC(C)C)c1=O` [Example 10, 4-Ethoxycarbonyl-2-isobutyl-6-(4-methoxyphenyl)-2H-pyridazin-3-one] gave a melting point of 83 to 83.3 °C.

`COC(=O)c1cc(-c2ccc(OC)c(OC)c2)nn(CC(C)C)c1=O` [Example 11, 6-(3,4-Dimethoxyphenyl)-2-isobutyl-4-methoxycarbonyl-2H-pyridazin-3-one] came in with a melting point of 104.2 to 105.5 °C.

Compound `COC(=O)c1cc(-c2ccc(OC)c(F)c2)nn(CC(C)C)c1=O` [Example 12, 6-(3-Fluoro-4-methoxyphenyl)-2-isobutyl-4-methoxycarbonyl-2H-pyridaz in-3-one] returned a melting point of 153.3 to 154.9 °C.

Compound `CCOC(=O)c1cc(-c2ccc(OC)cc2)nn(CC2CC2)c1=O` [Example 16, 2-Cyclopropylmethyl-4-ethoxycarbonyl-6-(4-methoxyphenyl)-2H-pyridazin-3-one] returned a melting point of 80.1 to 80.9 °C.

The compound `COC(=O)c1cc(-c2ccc(OC)c(OC)c2)nn(CC2CC2)c1=O` [Example 17, 2-Cyclopropylmethyl-6-(3,4-dimethoxyphenyl)-4-methoxycarbonyl-2H-pyridazin-3-one] displayed a melting point of 136.5 to 137.3 °C.

Regarding `COC(=O)c1cc(-c2ccc(OC)c(F)c2)nn(CC2CC2)c1=O` [Example 18, 2-Cyclopropylmethyl-6-(3-fluoro-4-methoxyphenyl)-4-methoxycarbonyl-2H-pyridazin-3-one], the melting point lay in the range of 139.6 to 140.7 °C.

`COC(=O)c1cc(-c2ccc(SC)cc2)nn(CC2CC2)c1=O` [Example 20, 2-Cyclopropylmethyl-4-methoxycarbonyl-6-[4-(methylthio)phenyl]-2H-pyridazin-3-one] came in with a melting point of 100.2 to 101.8 °C.

The compound `CCOC(=O)c1cc(-c2ccc(OC)cc2)nn(Cc2ccc(Cl)cc2Cl)c1=O` [Example 24, 2-(2,4-Dichlorobenzyl)-4-ethoxycarbonyl-6-(4-methoxyphenyl)-2H-pyridazin-3-one] showed a melting point of 135.7 to 136.3 °C.

The compound `COC(=O)c1cc(-c2ccc(OC)cc2)nn(Cc2ccc(N)cc2)c1=O` [Example 26, 2-(4-Aminobenzyl)-4-methoxycarbonyl-6-(4-methoxyphenyl)-2H-pyridazin-3-one] gave a melting point of 160 to 161.9 °C.

Consider `COC(=O)c1cc(-c2ccc(OC)cc2)nn(Cc2ccc(NC(=O)c3cccnc3)cc2)c1=O` [Example 27, 4-Methoxycarbonyl-6-(4-methoxyphenyl)-2-[4-(3-pyridylcarbonylamino)benzyl]-2H-pyridazin-3-one], for which the melting point was 235.7 to 236.9 °C (dec.).

On to `CCOC(=O)c1cc(-c2ccc(OC)cc2)nn(CC=Cc2ccc(Cl)cc2)c1=O` [Example 31, 2-(4-Chlorocinnamyl)-4-ethoxycarbonyl-6-(4-methoxyphenyl)-2H-pyridazin-3-one], for which the melting point is 127 to 127.9 °C.

As for `COC(=O)c1cc(-c2ccc(OC)c(OC)c2)nn(CC=Cc2ccc(Cl)cc2)c1=O` [Example 32, 2-(4-Chlorocinnamyl)-6-(3,4-dimethoxyphenyl)-4-methoxycarbonyl-2H-pyridazin-3-one], the melting point was in the range of 117.5 to 118.7 °C.

For the compound `COC(=O)c1cc(-c2ccc(OC)c(F)c2)nn(CC=Cc2ccc(Cl)cc2)c1=O` [Example 33, 2-(4-Chlorocinnamyl)-6-(3-fluoro-4-methoxyphenyl)-4-methoxycarbonyl-2H-pyridazin-3-one], the melting point lay within 131.3 to 132.3 °C.

For the compound `COC(=O)c1cc(-c2ccc(OC)c(Cl)c2)nn(CC=Cc2ccc(Cl)cc2)c1=O` [Example 34, 2-(4-Chlorocinnamyl)-6-(3-chloro-4-methoxyphenyl)-4-methoxycarbonyl-2H-pyridazin-3-one], the melting point lay in the range of 179.7 to 181.6 °C.

`COC(=O)c1cc(-c2ccc(SC)cc2)nn(CC=Cc2ccc(Cl)cc2)c1=O` [Example 35, 2-(4-Chlorocinnamyl)-4-methoxycarbonyl-6-[4-(methylthio)phenyl]-2H-pyridazin-3-one] came in with a melting point of 123.3 to 126.2 °C.

Compound `COc1ccc(-c2cc(C(N)=O)c(=O)n(CC3CC3)n2)cc1` [Example 39, 4-Carbamoyl-2-cyclopropylmethyl-6-(4-methoxyphenyl)-2H-pyridazin-3-one] registered a melting point of 182.2 to 183.3 °C.

`COc1ccc(-c2cc(C(N)=O)c(=O)n(CC3CCCC3)n2)cc1` [Example 40, 4-Carbamoyl-2-cyclopentylmethyl-6-(4-methoxyphenyl)-2H-pyridazin-3-one] came in with a melting point of 182.2 to 183.3 °C.

With `COc1ccc(-c2cc(C(N)=O)c(=O)n(CC=Cc3ccc(Cl)cc3)n2)cc1` [Example 42, 4-Carbamoyl-2-(4-chlorocinnamyl)-6-(4-methoxyphenyl)-2H-pyridazin-3-one], the melting point lay in the range of 195.1 to 195.5 °C.

`CNC(=O)c1cc(-c2ccc(OC)cc2)nn(CC#N)c1=O` [Example 46, 2-Cyanomethyl-6-(4-methoxyphenyl)-4-methylcarbamoyl-2H-pyridazin-3-one] gave a melting point of 153.4 to 154.9 °C.

Regarding `CNC(=O)Cn1nc(-c2ccc(OC)cc2)cc(C(=O)NC)c1=O` [Example 47, 6-(4-Methoxyphenyl)-4-methylcarbamoyl-2-methylcarbamoylmethyl-2H-pyridazin-3-one], the melting point fell in the range of 250.1 to 250.8 °C.

With `CNC(=O)c1cc(-c2ccc(OC)cc2)nn(CCO)c1=O` [Example 49, 2-(2-Hydroxyethyl)-6-(4-methoxyphenyl)-4-methylcarbamoyl-2H-pyridazin-3-one], the melting point lay in the range of 160.3 to 160.6 °C.

The compound `CNC(=O)c1cc(-c2ccc(OC)cc2)nn(C(C)C)c1=O` [Example 52, 2-Isopropyl-6-(4-methoxyphenyl)-4-methylcarbamoyl-2H-pyridazin-3-one] displayed a melting point of 154 to 154.3 °C.

In turn, `CNC(=O)c1cc(-c2ccc(OC)c(OC)c2)nn(CC(C)C)c1=O` [Example 53, 6-(3,4-Dimethoxyphenyl)-2-isobutyl-4-methylcarbamoyl-2H-pyridazin-3-one] showed a melting point of 111.4 to 112.6 °C.

`CNC(=O)c1cc(-c2ccc(OC)cc2)nn(CC=C(C)C)c1=O` [Example 57, 6-(4-Methoxyphenyl)-2-(3-methyl-2-butenyl)-4-methylcarbamoyl-2H-pyridazin-3-one] returned a melting point of 103.6 to 104 °C.

`CNC(=O)c1cc(-c2ccc(OC)cc2)nn(CC(=O)NCc2ccccn2)c1=O` [Example 58, 6-(4-Methoxyphenyl)-4-methylcarbamoyl-2-(2-pyridylmethyl)carbamoylmethyl-2H-pyridazin-3-one] yielded a melting point of 194.7 to 195.8 °C.

As for `CNC(=O)c1cc(-c2ccc(OC)cc2)nn(CC(=O)NCCO)c1=O` [Example 59, 2-(2-Hydroxyethyl)carbamoylmethyl-6-(4-methoxyphenyl)-4-methylcarbamoyl-2H-pyridazin-3-one], the melting point fell in the range of 240.2 to 241.2 °C.

Compound `CNC(=O)c1cc(-c2ccc(SC)cc2)nn(CC2CC2)c1=O` [Example 65, 2-Cyclopropylmethyl-4-methylcarbamoyl-6-[4-(methylthio)phenyl]-2H-pyridazin-3-one] had a melting point of 116.5 to 118 °C.

`CCCNC(=O)c1cc(-c2ccc(OC)cc2)nn(CC2CC2)c1=O` [Example 67, 2-Cyclopropylmethyl-6-(4-methoxyphenyl)-4-n-propylcarbamoyl-2H-pyridazin-3-one] gave a melting point of 101.3 to 101.6 °C.

In the case of `COc1ccc(-c2cc(C(=O)NCc3ccccc3)c(=O)n(CC3CC3)n2)cc1` [Example 68, 4-Benzylcarbamoyl-2-cyclopropylmethyl-6-(4-methoxyphenyl)-2H-pyridazin-3-one], the melting point was in the range of 119.7 to 120.1 °C.

`COc1ccc(-c2cc(C(=O)NCc3ccccn3)c(=O)n(CC3CC3)n2)cc1` [Example 69, 2-Cyclopropylmethyl-6-(4-methoxyphenyl)-4-(2-pyridylmethyl)carbamoyl-2H-pyridazin-3-one] displayed a melting point of 98.6 to 99.3 °C.

In turn, `COc1ccc(-c2cc(C(=O)Nc3ccncc3)c(=O)n(CC3CC3)n2)cc1` [Example 70, 2-Cyclopropylmethyl-6-(4-methoxyphenyl)-4-(4-pyridyl)carbamoyl-2H-pyridazin-3-one] gave a melting point of 181.3 to 181.5 °C.

`COc1ccc(-c2cc(C(=O)Nc3ccccc3)c(=O)n(CC3CC3)n2)cc1` [Example 71, 2-Cyclopropylmethyl-6-(4-methoxyphenyl)-4-phenylcarbamoyl-2H-pyridazin-3-one]: the melting point was 162.8 to 163.3 °C.

For `CNC(=O)c1cc(-c2ccc(OC)cc2)nn(CC2CCCC2)c1=O` [Example 72, 2-Cyclopentylmethyl-6-(4-methoxyphenyl)-4-methylcarbamoyl-2H-pyridazin-3-one], the melting point lay within 107.4 to 107.8 °C.

`CCCNC(=O)c1cc(-c2ccc(OC)cc2)nn(CC2CCCC2)c1=O` [Example 74, 2-Cyclopentylmethyl-6-(4-methoxyphenyl)-4-n-propylcarbamoyl-2H-pyridazin-3-one] had a melting point of 109.9 to 110.2 °C.

Consider `COc1ccc(-c2cc(C(=O)NCc3ccccc3)c(=O)n(CC3CCCC3)n2)cc1` [Example 75, 4-Benzylcarbamoyl-2-cyclopentylmethyl-6-(4-methoxyphenyl)-2H-pyridazin-3-one], for which the melting point is 107.6 to 108.1 °C.

`COc1ccc(-c2cc(C(=O)NCc3ccccn3)c(=O)n(CC3CCCC3)n2)cc1` [Example 76, 2-Cyclopentylmethyl-6-(4-methoxyphenyl)-4-(2-pyridylmethyl)carbamoyl-2H-pyridazin-3-one] returned a melting point of 126.6 to 127.5 °C.

(Values after patent US6403586B1, “Pyridazine derivatives and drugs containing the same as the active ingredient” (Kowa Co., Ltd., priority 1998, dated 2002).)
